Experimental data published in ChEMBL document CHEMBL1201862, “PubChem BioAssay data set” (2004).
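Cultured in 96-well plates, cells were exposed to test compound for 48 hours across five concentrations. GI50: concentration for 50% inhibition of growth.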 The source made the active and inactive calls. Rule as the data show it: active = GI50 up to about 1.1 µM and inactive = higher.

Legend:
Assay in all cases: growth of human tumour cells (NCI), 48 h
LOX IMVI = tested on: LOX IMVI
HCT-116 = tested on: HCT-116
COLO 205 = tested on: COLO 205
NCI-H226 = tested on: NCI-H226
HT-29 = tested on: HT-29
MOLT-4 = tested on: MOLT-4
RPMI-8226 = tested on: RPMI-8226
IGROV-1 = tested on: IGROV-1
HOP-62 = tested on: HOP-62
U-251 = tested on: U-251
SK-MEL-2 = tested on: SK-MEL-2
SN12C = tested on: SN12C
NCI-H23 = tested on: NCI-H23
CAKI-1 = tested on: CAKI-1
Malme-3M = tested on: Malme-3M
UACC-62 = tested on: UACC-62
HCT-15 = tested on: HCT-15
TK-10 = tested on: TK-10
DLD-1 = tested on: DLD-1
DU-145 = tested on: DU-145

Compound	GI50 (LOX IMVI)	GI50 (HCT-116)	GI50 (COLO 205)	GI50 (NCI-H226)	GI50 (HT-29)	GI50 (MOLT-4)	GI50 (RPMI-8226)	GI50 (IGROV-1)	GI50 (HOP-62)	GI50 (U-251)	GI50 (SK-MEL-2)	GI50 (SN12C)	GI50 (NCI-H23)	GI50 (CAKI-1)	GI50 (Malme-3M)	GI50 (UACC-62)	GI50 (HCT-15)	GI50 (TK-10)	GI50 (DLD-1)	GI50 (DU-145)
O=C(Nc1ccc(Sc2ccc(/N=N/c3c(O)c(S(=O)(=O)O)cc4cc(S(=O)(=O)O)ccc34)cc2)cc1)c1ccc(/N=N/c2c(O)c(S(=O)(=O)O)cc3cc(S(=O)(=O)O)ccc23)cc1	18.5 µM (inactive)	29.8 µM (inactive)	15.9 µM (inactive)	39.3 µM (inactive)	32.1 µM (inactive)	9.25 µM (inactive)	5.53 µM (inactive)	35.6 µM (inactive)	88.1 µM (inactive)	35.2 µM (inactive)	18.8 µM (inactive)	26.9 µM (inactive)	12.2 µM (inactive)	37.4 µM (inactive)	15.5 µM (inactive)	22.2 µM (inactive)	14.9 µM	27.5 µM (inactive)	51.1 µM (inactive)	
Cc1cn2cc(-c3ccncc3)nc2s1	> 49.8 µM (inactive)	> 83 µM (inactive)	> 71.8 µM (inactive)	> 100 µM (inactive)	> 100 µM (inactive)	> 100 µM (inactive)	> 47.2 µM (inactive)	> 100 µM (inactive)	> 100 µM (inactive)	> 100 µM (inactive)	> 100 µM (inactive)	> 100 µM (inactive)	> 100 µM (inactive)	> 100 µM (inactive)	> 100 µM (inactive)	> 100 µM (inactive)	98.6 µM	> 100 µM (inactive)	> 100 µM (inactive)	
O=C1CSC(/C(=C\c2ccc(Cl)cc2)c2nc3ccccc3[nH]2)=N1	15.8 µM (inactive)	16 µM (inactive)	19.1 µM (inactive)	6.93 µM (inactive)	21.7 µM (inactive)	51.8 µM (inactive)	33.8 µM (inactive)	10.1 µM (inactive)	1.94 µM (inactive)	12.3 µM (inactive)	17.9 µM (inactive)	17.8 µM (inactive)	14.8 µM (inactive)	8.79 µM (inactive)	16.7 µM (inactive)	18.7 µM (inactive)	22.8 µM	11.8 µM (inactive)	16.3 µM (inactive)	13.4 µM (inactive)
Cc1ccc(NCCO)cc1	> 100 µM (inactive)	> 100 µM (inactive)	> 100 µM (inactive)	> 100 µM (inactive)	> 100 µM (inactive)	85.1 µM (inactive)	> 100 µM (inactive)	> 100 µM (inactive)	> 100 µM (inactive)	> 100 µM (inactive)	> 100 µM (inactive)	> 100 µM (inactive)	> 100 µM (inactive)	> 100 µM (inactive)	> 100 µM (inactive)	> 100 µM (inactive)	> 100 µM	> 100 µM (inactive)	> 100 µM (inactive)	
Oc1ccc(C2Oc3cc(O)cc4c3C2c2cc(O)cc3c2C(c2cc(O)cc5c2C4C(c2ccc(O)cc2)O5)C(c2ccc(O)cc2)O3)cc1 (centres undefined)	7.05 µM (inactive)	7.48 µM (inactive)	> 25 µM (inactive)	6.19 µM (inactive)		6.89 µM (inactive)	7.45 µM (inactive)		16.5 µM (inactive)	6.32 µM (inactive)	5.51 µM (inactive)	8.05 µM (inactive)	6.11 µM (inactive)	> 25 µM (inactive)	5.7 µM (inactive)	> 25 µM (inactive)	> 25 µM	> 25 µM (inactive)	> 25 µM (inactive)	
Cc1cc(N(CCC#N)CCC#N)ccc1/C=C1N=C(/C=C\c2ccccc2)OC\1=O	> 100 µM (inactive)	> 100 µM (inactive)	> 100 µM (inactive)	> 100 µM (inactive)	> 100 µM (inactive)	> 100 µM (inactive)	> 100 µM (inactive)	> 100 µM (inactive)	> 100 µM (inactive)	> 100 µM (inactive)	> 100 µM (inactive)	> 100 µM (inactive)	> 100 µM (inactive)	> 100 µM (inactive)	> 100 µM (inactive)	> 100 µM (inactive)	> 100 µM	> 100 µM (inactive)	> 100 µM (inactive)	
O=C1CCC2(c3ccccc3)Nc3ccc(Cl)cc3N12 (centres undefined)	> 100 µM (inactive)		> 100 µM (inactive)	> 100 µM (inactive)	> 100 µM (inactive)	> 100 µM (inactive)	> 100 µM (inactive)	> 100 µM (inactive)	> 100 µM (inactive)	> 100 µM (inactive)	> 100 µM (inactive)	> 100 µM (inactive)	> 100 µM (inactive)	> 100 µM (inactive)	> 100 µM (inactive)	> 100 µM (inactive)	> 100 µM	> 100 µM (inactive)	> 100 µM (inactive)	
Clc1ccc(C(c2ccccc2Cl)C(Cl)Cl)cc1 (centres undefined) [MITOTANE]	21.3 µM (inactive)	13.2 µM (inactive)	17.3 µM (inactive)	16.5 µM (inactive)	16.8 µM (inactive)	14.7 µM (inactive)	14.5 µM (inactive)	13.9 µM (inactive)	18.2 µM (inactive)	16.6 µM (inactive)	18.3 µM (inactive)	16.7 µM (inactive)	19 µM (inactive)	13.1 µM (inactive)	14.1 µM (inactive)	14.8 µM (inactive)	15.8 µM	20 µM (inactive)	19.5 µM (inactive)	3.3 µM (inactive)
C=CCCCCCCCCC(=O)O [UNDECYLENIC ACID]	102 µM (inactive)	110 µM (inactive)	41.3 µM (inactive)	155 µM (inactive)	118 µM (inactive)	110 µM (inactive)	129 µM (inactive)	113 µM (inactive)	105 µM (inactive)	112 µM (inactive)	85.3 µM (inactive)	149 µM (inactive)	122 µM (inactive)	106 µM (inactive)	142 µM (inactive)	79.8 µM (inactive)	76.6 µM		76.2 µM (inactive)	
